Experimental data taken from ChEMBL document CHEMBL1201862, “PubChem BioAssay data set” (2004).
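48-hour exposure; five concentrations; linearly interpolated endpoints. GI50: concentration for 50% inhibition of growth.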 The source made the active and inactive calls. Rule as the data show it: active = GI50 up to about 1.1 µM and inactive = higher.

Columns and labels:
Test in all cases: DTP human tumour cell line panel, 48 h
[1] = system: 786-0
[2] = system: A498
[3] = system: A549
[4] = system: ACHN
[5] = system: BT-549
[6] = system: CAKI-1
[7] = system: CCRF-CEM
[8] = system: COLO 205
[9] = system: DU-145
[10] = system: EKVX
[11] = system: HCC 2998
[12] = system: HCT-116
[13] = system: HCT-15
[14] = system: HL-60
[15] = system: HOP-62
[16] = system: HOP-92
[17] = system: HT-29
[18] = system: Hs-578T
[19] = system: IGROV-1
[20] = system: K562
[21] = system: KM12
[22] = system: LOX IMVI
[23] = system: M14
[24] = system: MCF7
[25] = system: MDA-MB-231
[26] = system: MDA-MB-435
[27] = system: MDA-N
[28] = system: MOLT-4
[29] = system: Malme-3M
[30] = system: NCI-H226
[31] = system: NCI-H23
[32] = system: NCI-H460
[33] = system: NCI-H522
[34] = system: NCI/ADR-RES
[35] = system: OVCAR-3
[36] = system: OVCAR-4
[37] = system: OVCAR-5
[38] = system: OVCAR-8
[39] = system: PC-3
[40] = system: RPMI-8226
[41] = system: RXF 393
[42] = system: SF-268
[43] = system: SF-295
[44] = system: SF-539
[45] = system: SK-MEL-28
[46] = system: SK-MEL-2
[47] = system: SK-MEL-5
[48] = system: SK-OV-3
[49] = system: SN12C
[50] = system: SNB-19
[51] = system: SNB-75
[52] = system: SR
[53] = system: SW-620
[54] = system: T47D
[55] = system: TK-10
[56] = system: U-251
[57] = system: UACC-257
[58] = system: UACC-62
[59] = system: UO-31

Measured: GI50

Cn1c(Sc2ccc(-c3cccnc3)n2C)ccc1-c1cccnc1
inactive: [1] 11.5 µM | [2] 20.9 µM | [3] 26.4 µM | [4] 20.2 µM | [5] 20.4 µM | [6] 19.1 µM | [7] 1.96 µM | [8] 20 µM | [9] 18.1 µM | [10] 24 µM | [11] 20.2 µM | [12] 8.79 µM | [14] 2.39 µM | [15] 17.6 µM | [16] 12.9 µM | [17] 23.7 µM | [18] 3.7 µM | [19] 15 µM | [20] 3.12 µM | [21] 18 µM | [22] 3.73 µM | [23] 17.1 µM | [24] 17.7 µM | [25] 18.2 µM | [26] 13.4 µM | [27] 8.57 µM | [29] 11.1 µM | [30] 24.5 µM | [31] 16.7 µM | [32] 15.2 µM | [33] 10.3 µM | [34] 21.8 µM | [35] 11.3 µM | [36] 14.6 µM | [37] 22.9 µM | [38] 18.1 µM | [39] 15.5 µM | [40] 6.65 µM | [41] 18.5 µM | [42] 10.7 µM | [43] 16.2 µM | [44] 20.7 µM | [45] 10.3 µM | [46] 14.2 µM | [47] 16.4 µM | [48] 27.7 µM | [49] 16.8 µM | [50] 19.6 µM | [51] 21.8 µM | [52] 2.13 µM | [53] 6.93 µM | [54] 16.7 µM | [55] 17.3 µM | [56] 13.1 µM | [57] 12.4 µM | [58] 14.9 µM | [59] 17.5 µM
active: [28] 0.353 µM
16.8 µM: [13]

CN(CCNC(=O)c1cn(C)c2c1ccc1cc(Cl)c(Cl)cc12)CCNC(=O)c1cn(C)c2c1ccc1cc(Cl)c(Cl)cc12
inactive: [1] 1.65 µM | [2] 3.82 µM | [3] 1.82 µM | [4] 1.92 µM | [5] 19.7 µM | [6] 3.84 µM | [7] 1.61 µM | [8] 1.64 µM | [9] 1.82 µM | [10] 2.7 µM | [11] 1.69 µM | [12] 1.94 µM | [14] 1.32 µM | [15] 1.79 µM | [16] 2.17 µM | [17] 1.75 µM | [18] 2.17 µM | [19] 1.53 µM | [21] 1.75 µM | [22] 1.74 µM | [23] 1.75 µM | [24] 1.96 µM | [25] 1.75 µM | [26] 1.77 µM | [27] 2.29 µM | [29] 7.83 µM | [30] 24.7 µM | [31] 5.22 µM | [32] 1.9 µM | [33] 1.97 µM | [34] 2.26 µM | [35] 2.18 µM | [36] 2.5 µM | [37] 2.79 µM | [38] 1.79 µM | [39] 1.7 µM | [40] 2.65 µM | [41] 1.42 µM | [42] 2.75 µM | [43] 2.22 µM | [44] 2.61 µM | [45] 1.73 µM | [46] 1.84 µM | [47] 12.5 µM | [48] 2.03 µM | [49] 1.74 µM | [50] 2.08 µM | [51] 1.58 µM | [53] 1.8 µM | [54] 1.93 µM | [55] 3.71 µM | [56] 1.77 µM | [57] 2.41 µM | [58] 1.95 µM | [59] 1.72 µM
1.74 µM: [13]
active: [20] 0.535 µM | [28] 0.5 µM | [52] 0.56 µM

OCCN(CCO)CCn1cnc2c(NCc3ccccc3)ncnc21
inactive: [1] > 100 µM | [2] > 100 µM | [3] > 100 µM | [4] > 100 µM | [5] > 100 µM | [6] > 100 µM | [7] > 100 µM | [8] > 100 µM | [9] > 100 µM | [10] > 100 µM | [11] > 100 µM | [12] > 100 µM | [14] > 100 µM | [15] > 100 µM | [16] > 100 µM | [17] > 100 µM | [18] > 100 µM | [19] > 100 µM | [20] > 100 µM | [21] > 100 µM | [22] > 100 µM | [23] > 100 µM | [24] > 100 µM | [25] > 100 µM | [26] > 100 µM | [27] > 100 µM | [28] > 100 µM | [29] > 100 µM | [30] > 100 µM | [31] > 100 µM | [32] > 100 µM | [33] > 100 µM | [34] > 100 µM | [35] > 100 µM | [36] > 100 µM | [37] > 100 µM | [38] > 100 µM | [39] > 100 µM | [40] > 100 µM | [41] > 100 µM | [42] > 100 µM | [43] > 100 µM | [44] > 100 µM | [45] > 100 µM | [46] > 100 µM | [47] > 100 µM | [48] > 100 µM | [49] > 100 µM | [50] > 100 µM | [51] > 100 µM | [52] > 100 µM | [53] > 100 µM | [54] > 100 µM | [55] > 100 µM | [56] > 100 µM | [57] > 100 µM | [58] > 100 µM | [59] > 100 µM
> 100 µM: [13]

S=C1Cc2c(-c3ccc(Cl)cc3)cc(-c3ccccc3)nc2-c2ccccc2N1
21.1 µM: [13]
inactive: [1] 5.97 µM | [2] 14.8 µM | [3] 8.73 µM | [4] 7.82 µM | [5] 16.6 µM | [6] 3.95 µM | [7] 26.2 µM | [8] 16 µM | [9] 22 µM | [10] 15.6 µM | [11] 23.9 µM | [12] 11 µM | [14] 30.6 µM | [15] 6.98 µM | [16] 8.04 µM | [17] 5.47 µM | [18] 3.56 µM | [19] 3.83 µM | [20] > 100 µM | [21] 4.85 µM | [22] 13.9 µM | [23] 12.8 µM | [24] 17.1 µM | [25] 7.8 µM | [26] 15 µM | [27] 14 µM | [28] 28.7 µM | [29] 13.8 µM | [30] 13.1 µM | [31] 11.6 µM | [32] 13 µM | [33] 15.7 µM | [34] 12.7 µM | [35] 13 µM | [36] 3.08 µM | [37] 24.5 µM | [38] 2.86 µM | [39] 15.2 µM | [40] 37.3 µM | [41] 6.56 µM | [42] 14.3 µM | [43] 14.2 µM | [44] 4.01 µM | [45] 13.8 µM | [46] 17.7 µM | [47] 16 µM | [48] 10.6 µM | [49] 13.5 µM | [50] 4.5 µM | [51] 3.76 µM | [52] > 100 µM | [53] 19.1 µM | [54] 19.8 µM | [55] 12.3 µM | [56] 4.03 µM | [57] 14.1 µM | [58] 14.6 µM | [59] 14.8 µM
